Where two headings read alike, the source gives them in different places.
Key:
S. salivarius HM-121 = test: Growth in FAS-II inhibitor with or without exogenous fatty acids; assay type: cell-based, Streptococcus salivarius; conditions: fatty acid mixture of Table S2
Method: To plates containing twofold serial dilutions of compounds, exponential phase cultures were added to a final OD600nm of 0.1. Plates containing F. nucleatum in Columbia broth were incubated at 37 °C inside of a Tecan Infinite 200 Pro, which was inside an anaerobic chamber; growth kinetics for Streptococcus spp. in brain heart infusion broth were done aerobically in the same Tecan instrument.

[1] = system: F. nucleatum 23726 overexpression strains; test: MIC against F. nucleatum 23726 transformed with empty vector, fabK or fabX under ATc-inducible promoter; assay type: cell-based, Fusobacterium nucleatum; conditions: for MIC: Fusobacterium nucleatum
Method: The transformation of F. nucleatum 23726 was performed via electroporation as previously described,[41] except that Columbia broth was used. (i) Antisense vector: F. nucleatum gene silencing vector, pHFK2, was developed by inserting the ATc inducible paired-termini antisense sequences from the clostridial vector pMSPT into pCWU6, a F. nucleatum vector.[56] pCWU6 was amplified by PCR (CloneAmp polymerase) and recombined with the BamHI and KpnI fragments of pMSPT containing the Tet promoter and paired-termini sequences.[26] Antisense nucleotides targeting either 50 bp upstream and downstream of the fabK start codon (FabKAS1) or 25 bp upstream and 75 bp downstream (FabKAS2) were cloned into SphI and XhoI restriction sites of pHFK2. (ii) Complementation vectors: these were generated by PCR amplifying the fabK promoter and gene and introducing KpnI and HindIII restriction sites at 5′ and 3′ ends, respectively. Purified PCR amplicons were inserted into the KpnI and HindIII sites of pCWU6. (iii) Overexpression vectors: the corresponding gene, fabK or fabX, was amplified via PCR, introducing HindIII or SacI restriction sites to the 5′ end, respectively. BamHI restriction sites were introduced to the 3′ end of both. Purified PCR amplicons were inserted into the respective restriction sites of pHFK2. (iv) Allelic exchange vector: vector, pCWU8-FabK, was generated using a previously described protocol,[41],[56] whereby 1-kb regions upstream and downstream of fabK were cloned into the suicide vector pCWU8 using a Gibson Assembly Cloning Kit (New England Biolabs). The recombinant vector was transformed into strain F. nucleatum 23726ΔgalK, and successful integrants were collected that were resistant to thiamphenicol (5 μg/mL). Since the suicide vector expresses GalK, which is toxic in the presence of 2-deoxy-D-galactose (2-DG), the compound 2-DG (0.25% w/v) was added to counter-select for mutants that underwent a second homologous recombination. Ten resulting colonies were then tested for deletion of fabK via PCR, using primers in Table S7. The experiment was independently performed twice for a total of 20 colonies screened for fabK deletion. All experiments were done anaerobically at 37 °C in tryptic soy broth supplemented with 1% w/v peptone and 0.25% w/v autoclaved L-cysteine hydrochloride (TSPC) or TSPC agar with thiamphenicol or 2-DG.
(§1) Compounds were twofold serially diluted (100–0.2 μg/mL) across a 96-well plate in 100 μL of media used for the specific organism (Table S4). For anaerobes, plates were incubated anaerobically at 37 °C for 1 h and then inoculated with approximately 10^5 to 10^6 CFU/well. Plates were incubated at 37 °C for up to 48 h, and MICs were read by visual inspection.

F. periodonticum 2_1_31 = test: MIC, digestive tract panel; assay type: cell-based; conditions: ENR FabK
Method: as §1

Bifidobacterium breve = test: MIC, digestive tract panel; assay type: cell-based; conditions: Type I FAS
Method: as §1

P. gingivalis F0566 = test: MIC, digestive tract panel; assay type: cell-based; conditions: Porphyromonas gingivalis, ENR FabK
Method: as §1

Clostridium sp. MSTE9 = test: MIC, digestive tract panel; assay type: cell-based; conditions: ENR FabK
Method: as §1

Streptococcus salivarius = test: MIC, digestive tract panel; assay type: cell-based; conditions: ENR FabK
Method: as §1

P. gingivalis 33277 = test: MIC, digestive tract panel; assay type: cell-based; conditions: Porphyromonas gingivalis, ENR FabK
Method: as §1

Streptococcus pyogenes = test: MIC, digestive tract panel; assay type: cell-based; conditions: ENR FabK
Method: as §1

Streptococcus sanguinis = test: MIC, digestive tract panel; assay type: cell-based; conditions: ENR FabK
Method: as §1

Streptococcus downei = test: MIC, digestive tract panel; assay type: cell-based; conditions: ENR FabK
Method: as §1

F. periodonticum 33693 = test: MIC, digestive tract panel; assay type: cell-based; conditions: ENR FabK
Method: as §1

Prevotella denticola = test: MIC, digestive tract panel; assay type: cell-based; conditions: ENR FabI
Method: as §1

F. vincentii 49256 = test: MIC, digestive tract panel; assay type: cell-based; conditions: ENR FabK
Method: as §1

[2] = system: Propionibacterium acidifaciens; test: MIC, digestive tract panel; assay type: cell-based; conditions: ENR FabI
Method: as §1

P. gingivalis F0185 = test: MIC, digestive tract panel; assay type: cell-based; conditions: Porphyromonas gingivalis, ENR FabK
Method: as §1

Streptococcus mitis = test: MIC, digestive tract panel; assay type: cell-based; conditions: ENR FabK
Method: as §1

F. necrophorum 25286 = test: MIC, digestive tract panel; assay type: cell-based; conditions: Fusobacterium necrophorum, ENR FabK
Method: as §1

Streptococcus sp. SPAR10 = test: MIC, digestive tract panel; assay type: cell-based; conditions: ENR FabK
Method: as §1

P. gingivalis F0569 = test: MIC, digestive tract panel; assay type: cell-based; conditions: Porphyromonas gingivalis
Method: as §1

[3] = system: Streptococcus sp. CMW7705B; test: MIC, digestive tract panel; assay type: cell-based; conditions: ENR FabK
Method: as §1

Bacteroides ovatus = test: MIC, digestive tract panel; assay type: cell-based; conditions: ENR FabI/FabK
Method: as §1

F. nucleatum 25586 = test: MIC, digestive tract panel; assay type: cell-based; conditions: Fusobacterium nucleatum, ENR FabK
Method: as §1

Actinomyces F0386 = test: MIC, digestive tract panel; assay type: cell-based; conditions: Type I FAS
Method: as §1

CS(=O)(=O)c1ccc2nc(NC(=O)NCc3nc(-c4ccc(Br)cc4)c[nH]3)sc2c1 [Compound 681, 1-((4-(4-bromophenyl)-1H-imidazole-2-yl)methyl)-3-(6-(methylsulfonyl)benzo[d]thiazol-2-yl)urea]
< 1.6 µg/mL: MIC (Streptococcus salivarius) | MIC (Streptococcus pyogenes) | MIC (Streptococcus sanguinis) | MIC (Streptococcus downei) | MIC (Streptococcus mitis) | MIC (Streptococcus sp. SPAR10) | MIC [3]
twofold: Increase in biomass (OD600nm) in the presence of inhibitor and exogenous fatty acids (S. salivarius HM-121)
1.6 µg/mL: MIC (F. vincentii 49256)
> 100 µg/mL: MIC ([1]; read-out: MIC, FabK overexpression, induced) | MIC (Bifidobacterium breve; read-out: MIC) | MIC (Clostridium sp. MSTE9) | MIC (P. gingivalis 33277) | MIC (Prevotella denticola) | MIC (P. gingivalis F0569) | MIC (Bacteroides ovatus; read-out: MIC) | MIC (Actinomyces F0386)
0.8 µg/mL: MIC ([1]; read-out: MIC, FabK overexpression, uninduced) | MIC ([1]; read-out: MIC, FabX overexpression, uninduced) | MIC ([1]; read-out: MIC, empty vector, uninduced) | MIC (F. periodonticum 2_1_31) | MIC (F. periodonticum 33693) | MIC (F. nucleatum 25586)
0.4 µg/mL: MIC ([1]; read-out: MIC, empty vector, induced)
3.1 µg/mL: MIC ([1]; read-out: MIC, FabX overexpression, induced) | MIC (P. gingivalis F0566)
6.3 µg/mL: MIC [2] | MIC (P. gingivalis F0185)
>100 µg/mL: MIC, FabK overexpression, induced ([1]; F. nucleatum 23726 pTET-fabK, 62.5 ng/mL ATc) | MIC (Bifidobacterium breve) | MIC (Bacteroides ovatus)
6.3 to 12.5 µg/mL: MIC (F. necrophorum 25286)

From publication PMC11091888, “Evaluation of Fusobacterium nucleatum Enoyl-ACP Reductase (FabK) as a Narrow-Spectrum Drug Target” (ACS Infectious Diseases, 2024)
